# Reference: patent US4857537A, “Novel thiazolidine derivatives” (Ono Pharmaceutical Co., Ltd., priority 1987, dated 1989)
# Square brackets hold non-standard residues; d marks the D form. Peptide text beside a SMILES is read from it. * marks the point of attachment. ξ: configuration not given here. Hydrocinnamoyl = O=C(CCc1ccccc1)*; Thz = O=C(O)[C@@H]1CSCN1; Cbz = O=C(OCc1ccccc1)*; ξPip = O=C(O)C1CCCCN1; CH2Cl = ClC*
# Target: T1, prolyl endopeptidase (Bos taurus, UniProt Q9XTA2)
# T1 construct: purified from bovine brain; from tissue; host or cells: bovine brain
# Test: Prolyl endopeptidase inhibitory activity in vitro
# Type: biochemical, bovine
# Settings: not given
# Procedure: Inhibitory activity of prolyl endopeptidase in vitro was measured by the following test system.
# A mixed solution of 20 mM tris-HCl buffer (pH 7.5; 935 μl; containing 10 mM EDTA and 10 mM mercaptoethanol), a solution of a compound of the present invention in DMSO (10 μl) and a solution of prolyl endopeptidase which was purified from bovine brain (0.13 unit; prepared by the method described in J. Biochem., 94, 1179 (1983)) in tris-HCl buffer (15 μl) was preincubated for 15 mins at 37° C.
# To the solution, 5 mM of N-benzyloxycarbonyl-glycyl-prolyl-p-nitroanilide (40 μl) in a mixture of 40% dioxane--60% water was added. Ths solution was incubated for 1 min at the same temperature.
# Optical absorption (a1) at 405 nm of the solution, and optical absorption (a2) at 405 nm of the solution after more 30 mins' incubation at 37° C. were measured.
# Optical absorptions (b1 and b2) of the solutions using DMSO instead of the solution of the compound of the present invention were also measured.
# Inhibitory ratio was calculated by the following expression and IC50 (required concentration for 50% inhibition) was obtained (See Protein, Nucleic acid and Enzyme 25(6), 513, 1980.). [formula]
# T1 sequence (Q9XTA2 whole entry): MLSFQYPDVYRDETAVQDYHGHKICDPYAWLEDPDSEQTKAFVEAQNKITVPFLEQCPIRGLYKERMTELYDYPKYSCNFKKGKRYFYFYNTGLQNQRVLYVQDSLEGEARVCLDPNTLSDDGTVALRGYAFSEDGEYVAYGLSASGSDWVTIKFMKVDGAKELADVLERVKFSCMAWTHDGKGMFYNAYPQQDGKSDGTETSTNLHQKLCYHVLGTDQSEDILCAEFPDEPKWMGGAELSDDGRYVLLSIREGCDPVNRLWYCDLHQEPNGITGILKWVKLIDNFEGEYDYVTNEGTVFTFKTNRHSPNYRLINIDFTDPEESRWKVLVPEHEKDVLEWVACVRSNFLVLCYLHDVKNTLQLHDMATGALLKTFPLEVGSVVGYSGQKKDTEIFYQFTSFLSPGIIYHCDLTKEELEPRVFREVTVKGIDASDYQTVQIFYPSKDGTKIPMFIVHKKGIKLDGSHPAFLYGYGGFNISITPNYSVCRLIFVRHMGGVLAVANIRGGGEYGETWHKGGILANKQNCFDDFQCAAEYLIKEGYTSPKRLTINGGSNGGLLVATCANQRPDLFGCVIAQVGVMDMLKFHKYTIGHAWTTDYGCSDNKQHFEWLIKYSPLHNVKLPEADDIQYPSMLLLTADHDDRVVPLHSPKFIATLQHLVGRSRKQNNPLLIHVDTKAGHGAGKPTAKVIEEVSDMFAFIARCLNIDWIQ
row,Structure (SMILES),IC50 [nM]
1,"O=C[C@@H]1CSCN1C(=O)/C=C/c1ccc(CCCCCc2ccccc2)cc1 [1 (g), (4R)3-[4-(5-phenylpentyl)cinnamoyl]thiazolidin-4-al]",4800

# Same assay, conditions: in vitro; purified from bovine brain; pH 7.5, 37° C.; substrate N-benzyloxycarbonyl-glycyl-prolyl-p-nitroanilide; 405 nm; read-out: Concentration for 50% inhibition IC50
row,Structure (SMILES),IC50 [nM]
1,"O=C[C@@H]1CSCN1C(=O)C1CCC[C@H]1C(=O)CCc1ccccc1 (stereo partly drawn) [1 (l), (4R)3-[(2R)2-(3-phenylpropionyl)cyclopentanecarbonyl]thiazolidin-4-al]",22
2,"O=C[C@@H]1CSCN1C(=O)CCCOCc1ccccc1 [1 (i), (4R)3-(4-benzyloxybutyryl) thiazolidin-4-al]",8100
3,"O=C[C@@H]1CSCN1C(=O)CCC(=O)CCCc1ccccc1 [1 (k), (4R)3-(4-oxo-7-phenylheptanoyl) thiazolidin-4-al]",16
4,"O=C[C@@H]1CSCN1C(=O)C1CCCC1C(=O)NCc1ccccc1 (stereo partly drawn) [1 (v), (4R)3-[2-[Nbenzylcarbamoyl)cyclopentanecarbonyl]thiazolidin-4-al]",83
5,"CC(C)C(NC(=O)CCCc1ccccc1)C(=O)N1CSC[C@H]1C=O (stereo partly drawn) [1 (q), (4R)3-[2-(4-phenylbutyrylamino)-3-methylbutyryl]thiazolidin-4-al]",5.7
6,"O=C[C@@H]1CSCN1C(=O)CCC(=O)N(Cc1ccccc1)c1ccccc1 [1 (s), (4R)3-[3-(Nbenzyl-Nphenylcarbamoyl)propionyl]thiazolidin-4-al]",6.8
7,"CC(C)C(CCCCCc1ccccc1)C(=O)N1CSC[C@H]1C=O (stereo partly drawn) [1 (c), (4R)3-(2-isopropyl-7-phenylheptanoyl)thiazolidin-7-al]",87
8,"O=C[C@@H]1CSCN1C(=O)CCCCCCCCCc1ccccc1 [1 (b), (4R)3-(10-phenyldecanoyl) thiazolidin-4-al]",730
9,"COc1ccc(CNC(=O)CCC(=O)N2CSC[C@H]2C=O)cc1 [1 (t), (4R)3-[3-[N(4-methoxybenzyl)carbamoyl]propionyl]thiazolidin-4-al]",35
10,"O=C[C@@H]1CSCN1C(=O)C1CCCCN1C(=O)CCc1ccccc1 (stereo partly drawn) [1 (n), (4R)3-[1-(3-phenylpropionyl)piperidine-2-carbonyl]thiazolidin-4-al] (Hydrocinnamoyl-[ξPip]-[Thz]-aldehyde)",20

# Tested on: prolyl endopeptidase
# Test: not given
# Settings: See J. Neurochem., 41, 69(1983); cited from earlier work
row,Structure (SMILES),inhibition of prolyl endopeptidase (in words)
1,O=C(NCC(=O)N1CCC[C@H]1C(=O)CCl)OCc1ccccc1 [N-benzyloxycarbonyl-glycyl-L-prolyl-chloromethane] (Cbz-Gly-Pro-CH2Cl),strongly inhibit
